Experimental data published in patent US9018187B2, “Cationic lipids and methods for the delivery of therapeutic agents” (Protiva Biotherapeutics, Inc., priority 2009, dated 2015).
Entries after “also recorded” stand apart in the source; their conditions may differ.

Experiments:
[1] = Tolerability of 1:57 SNALP, liver enzyme levels; assay type: in vivo, mouse; details: FIG. 7, single IV bolus 10, 15 or 20 mg/kg, Balb/c mice, 48 hours post-injection, vs PBS control
Experimental: The tolerability of the 1:57 γ-DLenDMA SNALP formulation was evaluated with a single IV bolus injection of SNALP at either 10 mg/kg, 15 mg/kg, or 20 mg/kg in Balb/c mice (n=3 per group). Liver enzyme levels were measured at 48 hours post-injection.

[2] = tested on: ApoB mRNA in ApoE−/− primary hepatocytes; assay: ApoB silencing in ApoE−/− primary hepatocytes after serum pre-incubation of SNALP; assay type: cell-based, mouse; details: FIGS. 12-14; 1:57 SNALP pre-incubated with C57 or ApoE−/− serum, 40-0.625 nM siRNA on hepatocytes, 24 hr
Experimental: ApoE−/− primary hepatocytes were isolated and plated at 2.5×10^4 cells/well. Each SNALP formulation was pre-incubated with 50% C57 (ApoE-containing) serum or ApoE−/− serum at siRNA concentrations of 4000-62.5 nM for 1 hr at 37° C. Samples were then diluted to 40-0.625 nM on the hepatocytes for 24 hr. After 24 hr, cells were lysed and ApoB and GAPD mRNA levels were measured via bDNA (QG) assay.

[3] = tested on: tumor PLK-1 mRNA; assay: Tumor PLK-1 mRNA knockdown by 7:54 SNALP in Scid mice containing Hep3B tumors; assay type: in vivo, mouse; details: FIG. 11, 7:54 SNALP with PLK-1 siRNA, IV 3 mg/kg, 24 hours, PLK-1/GAPDH QG assay
Experimental: 7:54 SNALP formulations containing encapsulated PLK-1 siRNA were prepared with the following cationic lipids: (1) DLinDMA; (2) TLinDMA; (3) DLin-C1K-DMA (“DLin-K-DMA”); (4) DPanDMA; (5) DPan-C2-DMA (“C2-DPanDMA”); (6) DPan-C2K-DMA; (7) DPan-C3K-DMA; and (8) DPan-C1K6-DMA.
(§1) Each SNALP formulation was administered by intravenous (IV) injection at 3 mg/kg into Scid mice containing Hep3B tumors (n=4 per group). Tumor tissue was colleted at 24 hours after SNALP administration and tumor PLK-1 mRNA levels were evaluated by performing a PLK-1/GAPDH QG assay. Table 5 provides a characterization of the SNALP formulations used in this in vivo study.

[4] = Characterization of SNALP formulations (size, polydispersity, encapsulation); assay type: physicochemical; details: Table 5; for Initial Encaps. (%): 7:54 SNALP (PEG750-C-DMA 6.76 | cationic 54.06 | Chol 32.43 | DPPC 6.75 mol %) with PLK-1 siRNA; for Finished Product Encaps. (%) / Finished Product Poly / Finished Product Z-Avg (nm): 7:54 SNALP with PLK-1 siRNA
Experimental: In the context of nucleic acids, full encapsulation may be determined by performing a membrane-impermeable fluorescent dye exclusion assay, which uses a dye that has enhanced fluorescence when associated with nucleic acid. Specific dyes such as OliGreen® and RiboGreen® (Invitrogen Corp.; Carlsbad, Calif.) are available for the quantitative determination of plasmid DNA, single-stranded deoxyribonucleotides, and/or single- or double-stranded ribonucleotides. Encapsulation is determined by adding the dye to a liposomal formulation, measuring the resulting fluorescence, and comparing it to the fluorescence observed upon addition of a small amount of nonionic detergent. Detergent-mediated disruption of the liposomal bilayer releases the encapsulated nucleic acid, allowing it to interact with the membrane-impermeable dye. Nucleic acid encapsulation may be calculated as E=(Io−I)Io, where I and Io refer to the fluorescence intensities before and after the addition of detergent (see, Wheeler et al., Gene Ther., 6:271-281 (1999)). […]
as §1

[5] = TNS assay, apparent pKa of cationic lipid in 1:57 SNALP; details: 1:57 SNALP formulation containing encapsulated APOB siRNA
Experimental: 1:57 SNALP formulations containing encapsulated APOB siRNA were prepared as described in Section VI above with the following cationic lipids: (1) DLinDMA; (2) DLenDMA; (3) γ-DLenDMA (“g-DLenDMA”); (4) C2-DLinDAP; (5) DLinPip (4-OH); (6) DLinPip; (7) DLinPip (3-OH); (8) DLinDEA; (9) DDocDMA; (10) DAraDMA; (11) TLinDMA; (12) DLin-C2K Pip (30H); (13) DHep-C2K-DMA; (14) DPanDMA; (15) C2-DPanDMA (“DPan-C2-DMA”); (16) DPan-C2K-DMA; (17) DPan-C3K-DMA; (18) DPan-K6-DMA (“DPan-C1K6-DMA”); and (19) C2-TLinDMA.
The apparent pKa of the cationic lipids present in these SNALP formulations was determined using a 2-(p-toluidinyl)-naphthalene-6-sodium sulfonate (TNS) assay. TNS is a negatively-charged indicator of membrane potential that is electrostatically attracted to positively charged membranes (see, Bailey and Cullis, Biochemistry, 33 12573-80 (1994)). Subsequent adsorption to the lipid membrane results in the immediate environment of the TNS becoming more lipophilic, removing the water molecules that otherwise quench TNS fluorescence. As a result, TNS measures the surface potential of the particle, wherein the more positive the surface potential, the greater the level of fluorescence. The surface pKa values of each SNALP formulation were determined by varying the local pH in the presence of TNS. By plotting fluorescence versus pH, the pKa of the cationic lipid can be estimated in the particle as the pH where fluorescence equals 50% of total fluorescence.

[6] = tested on: liver ApoB mRNA; assay: Liver ApoB mRNA knockdown by 1:57 SNALP with APOB siRNA in mice; assay type: in vivo, mouse; details: 1:57 SNALP, 6:1 L:D, IV 0.1 mg/kg, female Balb/c mice, 48 hours
Experimental: Each SNALP formulation was administered by intravenous (IV) injection at 0.1 mg/kg into female Balb/c mice (n=3 per group). Plasma total cholesterol and/or liver ApoB mRNA levels were evaluated at 48 hours after SNALP administration. For dose response studies, SNALP formulations were administered by IV injection at 0.01 mg/kg, 0.03 mg/kg, or 0.1 mg/kg into female Balb/c mice (n=3 per group). Liver ApoB mRNA levels were evaluated at 48 hours after SNALP administration.
1:57 SNALP formulations containing encapsulated APOB siRNA at a 6:1 lipid:drug (L:D) ratio were prepared with the following cationic lipids: (1) DLinDMA; (2) Linoleyl/Linolenyl DMA (“Lin/LenDMA”); (3) DPanDMA; (4) TLinDMA; (5) Linoleyl/C6:0 DMA (“Lin/6:0”); (6) C2-DPanDMA; (7) DLin-C2K-Pip (30H); and (8) DHep-C2K-DMA.
(§2) Each SNALP formulation was administered by intravenous (IV) injection at 0.1 mg/kg into female Balb/c mice (n=3 per group). Livers were colleted at 48 hours after SNALP administration and liver ApoB mRNA levels were evaluated by performing an ApoB/GAPDH QG assay. Table 2 provides a characterization of the SNALP formulations used in this in vivo study.
In another study, 1:57 SNALP formulations containing encapsulated APOB siRNA at a 6:1 L:D ratio were prepared with the following cationic lipids: (1) DLinDMA; (2) C2-DPanDMA; (3) DPan-C2K-DMA; (4) DPan-C3K-DMA; and (5) DPan-C1K6-DMA.
as §2, with “3” for “2”
For dose response studies, SNALP formulations were administered by IV injection at 0.01 mg/kg, 0.033 mg/kg, or 0.1 mg/kg into female Balb/c mice (n=3 per group). Liver ApoB mRNA levels were evaluated at 48 hours after SNALP administration by a branched DNA assay (QuantiGene assay) to assess ApoB mRNA relative to the housekeeping gene GAPDH.

Row | Initial Encaps. (%) [4] [%] | Finished Product Encaps. (%) [4] [%] | Finished Product Poly [4] | Finished Product Z-Avg (nm) [4] [nm] | pKa [5] | Structure (SMILES) | liver enzyme levels [1] | ApoB silencing activity and its dependence on ApoE [2] | tumor PLK-1 mRNA silencing activity [3] | also measured
1 | – | – | – | – | – | CC/C=C\C/C=C\C/C=C\CCCCCCCCOCC(CN(C)C)OCCCCCCCC/C=C\C/C=C\C/C=C\CC (stereo not shown) [DLenDMA, 1,2-dilinolenyloxy-N,N-dimethylaminopropane, reference compound] | did not significantly elevate liver enzyme levels | greatest levels of silencing activity when ApoE-containing serum was present | – | –
2 | – | – | – | – | – | CCCCC/C=C\C/C=C\CCCCCCCCC1(CCCCCCCC/C=C\C/C=C\CCCCC)OCC(CCCN(C)C)O1 (stereo not shown) [DLin-C3K-DMA] | – | less dependent on ApoE compared to other formulations tested | – | –
3 | – | – | – | – | – | CCCCC/C=C\C/C=C\C/C=C\CCCCCOCC(CN(C)C)OCCCCC/C=C\C/C=C\C/C=C\CCCCC (stereo not shown) [γ-DLenDMA, 1,2-Di-γ-linolenyloxy-N,N-dimethylaminopropane] | did not significantly elevate liver enzyme levels | – | – | –
4 | – | – | – | – | – | CCCCCC=CCC=CCCCCCCCCC1(CCCCCCCC/C=C\C/C=C\CCCCC)OCC(CCCCN(C)C)O1 (stereo not shown) [DLin-C4K-DMA] | – | less dependent on ApoE compared to other formulations tested | – | –
5 | 86 | 100 | 0.06 | 81 | ~6.1 | CC(C)CCCC(C)CCCC(C)CCCC(C)CCOCC(CCN(C)C)OCCC(C)CCCC(C)CCCC(C)CCCC(C)C (stereo not shown) [Compound C2-DPanDMA, 1,2-Diphytanyloxy-(N,N-dimethyl)-butyl-4-amine] | – | – | no difference in silencing activity | ApoB silencing activity (liver ApoB mRNA) ([6]; Example 16, FIG. 8, ApoB/GAPDH QG assay): more potent compared to DLinDMA and substantially more potent compared to DPanDMA; ApoB silencing activity (liver ApoB mRNA) ([6]; Example 16 second study, FIG. 9, 0.1 mg/kg): more potent compared to DLinDMA; also recorded: greatest activity of all the phytanyl-containing cationic lipids tested
6 | 75 | 100 | 0.08 | 76 | 5.5 | CC(C)CCCC(C)CCCC(C)CCCC(C)CCOCC(CN(C)C)OCCC(C)CCCC(C)CCCC(C)CCCC(C)C (stereo not shown) [DPanDMA, 1,2-Diphytanyloxy-3-(N,N-dimethyl)-propylamine] | – | – | no difference in silencing activity | –
